Data published in PubChem BioAssay (NCI).
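Five concentrations, 48 hours, 96-well plates. TGI marks complete inhibition of growth.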

Legend:
Assay in all cases: NCI-60 cell line screen, 48 h
TK-10 renal = system: TK-10 renal
SNB-75 CNS = system: SNB-75 CNS
RPMI-8226 leukemia = system: RPMI-8226 leukemia
SF-268 CNS = system: SF-268 CNS
RXF 393 renal = system: RXF 393 renal
M14 melanoma = system: M14 melanoma
SF-295 CNS = system: SF-295 CNS
SNB-19 CNS = system: SNB-19 CNS
HL-60(TB) leukemia = system: HL-60(TB) leukemia
SF-539 CNS = system: SF-539 CNS
COLO 205 colon = system: COLO 205 colon
NCI-H226 lung = system: NCI-H226 lung
HCT-116 colon = system: HCT-116 colon
SK-MEL-5 melanoma = system: SK-MEL-5 melanoma
SN12C renal = system: SN12C renal
U251 CNS = system: U251 CNS
UACC-62 melanoma = system: UACC-62 melanoma
HS 578T breast = system: HS 578T breast
EKVX NSCLC = system: EKVX NSCLC

Compound	TGI (TK-10 renal) [µM]	TGI (SNB-75 CNS) [µM]	TGI (RPMI-8226 leukemia) [µM]	TGI (SF-268 CNS) [µM]	TGI (RXF 393 renal) [µM]	TGI (M14 melanoma) [µM]	TGI (SF-295 CNS) [µM]	TGI (SNB-19 CNS) [µM]	TGI (HL-60(TB) leukemia) [µM]	TGI (SF-539 CNS) [µM]	TGI (COLO 205 colon) [µM]	TGI (NCI-H226 lung) [µM]	TGI (HCT-116 colon) [µM]	TGI (SK-MEL-5 melanoma) [µM]	TGI (SN12C renal) [µM]	TGI (U251 CNS) [µM]	TGI (UACC-62 melanoma) [µM]	TGI (HS 578T breast) [µM]	TGI (EKVX NSCLC) [µM]
NC1=NNC2(C(=O)N1)c1ccccc1-c1ccccc12	> 10	> 10	> 10	> 10	> 10	> 10	> 10	> 10	> 10	> 10	> 10	> 10	> 10	> 10	> 10	> 10	–	–	–
NC1CC(N)c2c(Br)sc(Br)c21 (stereo unspecified)	> 100	–	–	> 100	–	> 100	> 100	–	–	> 100	> 100	> 100	> 100	> 100	> 100	> 100	> 100	> 100	> 100
CN(C(=O)c1ccc(Cl)cc1)C(=S)N1CCN(c2ccccn2)CC1	> 100	> 100	> 100	> 100	> 100	> 100	> 100	> 100	> 100	> 100	> 100	> 100	> 100	> 100	> 100	> 100	> 100	–	–
O/N=C/c1cc2c(cc1Br)OCO2	> 100	> 100	> 100	–	–	> 100	> 100	> 100	> 100	> 100	> 100	> 100	> 100	> 100	> 100	> 100	> 100	–	> 100
C=CN1C(=O)OC[C@@H]1c1ccccc1	> 100	> 100	> 100	> 100	> 100	> 100	> 100	> 100	> 100	> 100	> 100	> 100	> 100	> 100	> 100	> 100	> 100	–	> 100
COc1cc(Cl)cc(N(O)C(C)=O)c1OCc1ccccc1	> 100	76.4	> 100	> 100	> 100	> 100	> 100	> 100	> 100	> 100	> 100	> 100	> 100	> 100	> 100	> 100	> 100	–	> 100
O=C(Cc1ccccc1)NN1C(=O)C(Cl)C1c1ccc([N+](=O)[O-])cc1 (stereo unspecified)	> 100	> 100	> 100	> 100	> 100	> 100	> 100	> 100	> 100	–	> 100	> 100	> 100	> 100	> 100	> 100	> 100	–	> 100
